Paper PMC4444337 (PLoS ONE, 2015)
Where “and” joins values, the source holds several entries; their conditions need not be identical. Identical values can stand only once.

What was measured:
[1] = system: RSV; parameters: method as in PMID 19707346, PMID 9359721; conditions: cotton rat model; cited from earlier work
[2] = system: RSV; parameters: method as in PMID 19707346, PMID 9359721; conditions: pediatric patients; cited from earlier work
[3] = system: RSV-A virus; conditions: read-out: EC50 on Hep2 cells, for RSV-A virus; cited from earlier work
[4] = system: RSV; conditions: cited from earlier work
[5] = system: RSV subgroup A strain A2; assay: RSV viral load (qRT-PCR, RSV-A F gene) in BALF/throat after RSV A2 challenge; format: in vivo, African green monkeys; conditions: for Peak log VL (Median) in BALF: qRT-PCR
Description: In Study 1 all animals were followed until day 13 post-inoculation, when the necropsy took place.
In Study 2 all animals were followed until day 15 post-inoculation, when the necropsy took place.
Bronchoalveolar lavage fluid (BALF), nasal and throat swabs and blood samples were collected every 2 days from day 1 postinfection up to day 11 (study 1) and day 13 (study 2). For BALF collection, monkeys were sedated with […] (0.02–0.05 mg/kg) administered intramuscularly to allow passage of sterile laryngoscope and endotracheal tube. BAL was performed by laryngoscopy by inserting a shortened Kendall Sovereign feeding tube and urethral catheter through the endotracheal tube and approximately 10 mL of phosphate buffer saline (10 mL, pH 7.4) was instilled and gently suctioned back into the syringe promptly to recover approximately 5–7 mL of BAL in the syringe. Later, the adjustment of the dilution was done based on urea and protein concentration. White blood cell (WBC) count from BALF was analyzed using automated blood analysis instrumentation (Antech Diagnostics, Lake Success, NY, USA).
All animals were challenged with 1.5mL of 1 × 10^4 pfu/mL RSV subgroup A—strain A2 virus intranasally (i.n.) and intratracheally (i.t.) on day 0. […] The virus was thawed at room temperature and immediately put on ice.
For each inoculation, 1.5 mL were aspirated with a 3 mL syringe. After being anesthetized with 10 mg/mL ketamine, the animals were placed in dorsal recumbency. 0.25 mL of the virus was instilled drop-by-drop into each nostril and allowed to absorb for 20 sec. Once the absorption was complete, a Kendall Sovereign Feeding Tube and Urethral Catheter, Size 5 Fr, was trimmed about one inch on each side and inserted intratracheally using a laryngoscope. Once in place, 1mL of virus was instilled and flushed into the trachea with 7 mL of air.
RNA was extracted using a previously described protocol.
RSV was quantified using one-Step RT-PCR Master Mix reagents (Applied Bio systems, USA). Amplification and detection were performed in a ABI PRISM 7700 Sequence Detection System (Applied Biosystems, USA) under the following conditions: an initial reverse transcription at 48°C for 30 minutes, followed by PCR activation at 95°C for 10minutes and 45 cycles of amplification (15 sec at 95°C and 1minutes at 60°C).
The IEC-B assay was run as control. The viral load (VL) was expressed as RSV A-F copy numbers and transformed in Δ log10 values. The limit of detection was 10 copies of RSV F gene. The antiviral effect was calculated as differences between peak VL and area under the curve (AUC) VL based on Δ log10 RSV from different groups.

[6] = system: RSV; parameters: method as in PMID 21148224; conditions: slow single bolus injection; cited from earlier work
[7] = system: RSV; parameters: method as in PMID 21148224, PMID 17722899; conditions: single administration, cited from earlier work
[8] = Safety analysis: clinical symptoms, blood counts, serum chemistry; format: in vivo, African green monkeys; conditions: compound treated vs vehicle treated groups
Description: The animals were monitored for clinical symptoms such as body temperature changes indicating a fever, signs of a cold, runny nose, sneezing, loss of appetite, and body weight. Blood counts and serum chemistry were assessed every second day. The safety findings were compared between the vehicle groups and the compound groups, to identify possible compound related adverse events.

[9] = system: IL8; assay: IL8 in BALF (Luminex) after RSV challenge; format: in vivo, African green monkeys; conditions: both studies
Description: The following monkey-specific cytokines were determined in BALF using a Luminex bead analysis according to the manufacturer's protocol: Interleukins (IL)-1b, IL-2, IL-4, IL-5, IL-6, IL-8, IL-10, Interferons (IFN)γ, IFNα, Tumor necrosis factor (TNF)α, Regulated on Activation, Normal T Cell Expressed and Secreted (RANTES), and Macrophage inflammatory protein (MIP)-1α. The non-human primate Luminex beads for IFNγ, IFNα, and IL-10 were provided by Texas Biomedical Research Institute (Texas, USA). The beads for the remaining cytokines were obtained from Millipore (Billerica, MA, USA). The samples for cytokine determination were run in duplicates. Human cytokine standards were used for standard curves and for determination of the lower limit of detection for individual cytokines. The results were read using a Luminex 100 System (Texas, USA).

[10] = system: RSV subgroup A strain A2; assay: Lung histopathology (inflammation) in RSV-infected animals; format: in vivo, African green monkeys
Description: Tissues (administration site, heart, liver, lung, pancreas, skeletal muscle and trachea) were fixed in 10% phosphate-buffered formalin, paraffin-embedded, sectioned at 5 μm, stained with hematoxylin-eosin (H&E) and evaluated microscopically. For the lung, histological examination was performed on the right lung only, the left lung lobe was sampled for bioanalytical purposes. At tissue trimming, representative cross sections were taken from the cranial, mid and caudal lung lobe in all animals including the central part (with large bronchus) and the peripheral part. Three lung sections per animal (cranial, mid and caudal lobe) with two samples each (central and peripheral) were evaluated for each animal. To facilitate comparison between groups, a general overall score for inflammation was given for each lung section. Mean inflammatory scores were determined for each animal (mean of 3 lung lobes) and per dose group (S2 Fig).
The necropsy was performed at day 13 for Study 1 and at Day 15 for Study 2. Before necropsy, a sample for complete blood count and plasma sample was taken. Euthanasia procedures adhered to the current Report of the American Veterinary Medical Association Panel on Euthanasia. The anesthesia was performed with a combination of ketamine hydrochloride (7–15 mg/kg) and either acetylpromazine maleate (acepromazine) (0.55 mg/kg) or xylanin (Rompun) (0.6 mg/kg) followed by exsanguinations via the femoral vein. The blood taken was recorded. Thereafter, an injection of 390 mg/kg sodium pentobarbital intravenously was given. Death was defined as the cessation of respiration and of heartbeat. The necropsy was performed according to BIOQUAL SOPs and a board-certified veterinary pathologist from the Charles River Laboratories, Pathology Associates Division (PAI) was present at necropsy.

## palivizumab: humanized monoclonal antibody indicated for RSV prophylaxis in high-risk children
[1]
  Exposure level to achieve complete inhibition of the RSV shedding: 40 µg/mL
[2]
  Exposure levels required to achieve 50% prophylactic effectiveness: 37 to 72 µg/mL

## NC(=O)c1ncn([C@@H]2O[C@H](CO)[C@@H](O)[C@H]2O)n1 [ribavirin]
[3]
  EC50: 30 µM

## Cc1ccc(CCCO)c(NCc2ccc3nc(NCCCN4CCOCC4)n(Cc4nc(C)ccc4O)c3c2)c1 [TMC353121]
[4]
  pEC50 (anti-RSV activity): 9.9
[5]; Px500 arm
  Plasma exposure at which complete inhibition of RSV shedding was observed: 0.39 µg/mL
[5]; Study 1, Px50, 3 out of 5 animals
  Timing of peak viral shedding: delayed peak viral shedding from day 7 to day 9
[5]; Study 1, Px50, vehicle Vh1 8.15
  Peak log VL (Median) in BALF: 6.88 log10
[5]; Study 1, Px50 vs Vh1
  Δ log (Median): reduction in peak VL vs vehicle treated group, BALF: -1.06 log10
[5]; Study 1, Tx50
  Decrease in peak VL in BALF compared with the control group: 1.15 log10
[5]; Study 1, Tx50, vehicle Vh1 8.15
  Peak log VL (Median) in BALF: 7 log10 and 7.00 log10
[5]; Study 1, Tx50 vs Vh1
  Δ log (Median): reduction in peak VL vs vehicle treated group, BALF: -1.1 log10
[5]; Study 2, Px5, vehicle Vh2 5.17
  Peak log VL (Median) in BALF: 5.23 log10
[5]; Study 2, Px5 vs Vh2
  Δ log (Median): reduction in peak VL vs vehicle treated group, BALF: 0 log10
[5]; Study 2, Px500, except one animal with a viral blip at day 10
  Viral replication during the entire study: complete inhibition of viral replication
[5]; Study 2, Px500, vehicle Vh2 5.17
  Peak log VL (Median) in BALF: 0 log10
[5]; Study 2, one Px500 animal, day 10, below limit of detection at day 9 in presence of drug
  VL in BAL 24h after the drug infusion was stopped: 2 log
[5]; from 1log10 reduction of peak viral load to complete inhibition of RSV replication
  Antiviral activity across dose groups: dose-dependent antiviral activity
[5]; prophylactic administrations (Px50, Px5)
  Delay in peak viral shedding: 2 days
[5]; therapeutic (+1day postchallenge) or prophylactic administration at exposure levels 3- to 5-fold above the EC50c
  Peak VL reduction: 1 log10
[6]
  Antiviral activity in rodent models of RSV infection: significant antiviral activity
[7]; mice
  Antiviral effect in treated compared with untreated groups: 0.5–1 log
[7]
  Lung histopathology in mice: improved lung histopathology
[8]
  Drug related adverse events (clinical symptoms, blood counts, serum chemistry): no drug related adverse events were observed
[9]
  IL8 production in BALF, control vs treated animals: no significant reduction in IL8 production
[10]; Study 1, Tx50 and Px50 groups
  Lung histopathology: improvement: No improvement on lung histopathology
[10]; Study 2, Px5 group (as vehicle control), slight to marked degree
  Lung histopathology: inflammatory changes: very pronounced (inflammatory) changes
[10]; Study 2, Px500 group, minimal to occasionally slight degree
  Lung histopathology: inflammatory changes: much less pronounced changes
